One test has as its target Acetylcholinesterase (Electrophorus electricus, UniProt O42275).
Another test addresses Cholinesterase (Equus caballus, UniProt P81908).

Chain of Acetylcholinesterase (O42275 whole entry): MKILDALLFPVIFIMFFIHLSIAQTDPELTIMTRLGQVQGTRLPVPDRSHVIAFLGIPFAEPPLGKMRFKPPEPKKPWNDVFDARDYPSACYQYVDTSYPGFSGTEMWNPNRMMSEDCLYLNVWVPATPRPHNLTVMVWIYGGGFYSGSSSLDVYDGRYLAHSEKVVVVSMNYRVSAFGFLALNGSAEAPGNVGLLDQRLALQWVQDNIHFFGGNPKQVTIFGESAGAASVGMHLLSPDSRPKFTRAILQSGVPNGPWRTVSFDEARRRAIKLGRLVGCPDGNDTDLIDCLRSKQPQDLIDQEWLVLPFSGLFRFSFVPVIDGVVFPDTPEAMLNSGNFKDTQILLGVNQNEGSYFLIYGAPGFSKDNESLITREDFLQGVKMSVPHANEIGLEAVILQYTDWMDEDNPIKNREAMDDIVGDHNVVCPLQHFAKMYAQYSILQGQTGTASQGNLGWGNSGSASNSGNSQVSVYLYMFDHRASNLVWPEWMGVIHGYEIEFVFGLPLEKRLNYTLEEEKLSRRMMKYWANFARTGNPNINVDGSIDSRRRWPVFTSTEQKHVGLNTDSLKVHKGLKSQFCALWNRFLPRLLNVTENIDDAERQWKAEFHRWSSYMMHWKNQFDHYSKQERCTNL
Chain of Cholinesterase (P81908 whole entry): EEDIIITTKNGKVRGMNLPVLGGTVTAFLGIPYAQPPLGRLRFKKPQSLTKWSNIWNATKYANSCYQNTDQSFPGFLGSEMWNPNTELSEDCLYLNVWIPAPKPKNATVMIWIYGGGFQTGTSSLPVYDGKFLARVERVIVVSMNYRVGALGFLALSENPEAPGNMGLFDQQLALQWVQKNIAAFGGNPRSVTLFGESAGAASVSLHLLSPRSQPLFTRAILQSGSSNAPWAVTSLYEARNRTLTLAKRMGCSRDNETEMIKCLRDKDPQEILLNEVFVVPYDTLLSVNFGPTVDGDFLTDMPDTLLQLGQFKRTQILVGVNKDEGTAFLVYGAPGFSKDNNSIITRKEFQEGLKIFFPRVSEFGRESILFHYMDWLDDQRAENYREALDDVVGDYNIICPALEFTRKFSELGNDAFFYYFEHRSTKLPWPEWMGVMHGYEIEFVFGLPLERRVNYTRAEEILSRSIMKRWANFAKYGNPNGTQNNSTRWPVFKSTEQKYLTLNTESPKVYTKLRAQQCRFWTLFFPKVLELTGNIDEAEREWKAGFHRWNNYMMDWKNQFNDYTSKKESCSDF
Description for Acetylcholinesterase: inhibition of electric eel AChE by Ellman's method

For orientation: IC50 means the concentration at which inhibition is half-maximal. A higher IC50 goes with lower potency. As to `O=C(CCN1CCCC1)Nc1ccc2nc3n(c(=O)c2c1)CCc1c-3[nH]c2ccccc12`, the IC50 against Acetylcholinesterase is 29.2 nM; against Cholinesterase it was 845 nM.
`O=C(CN1CCCC1)Nc1ccc2ncn(CCc3c[nH]c4ccccc34)c(=O)c2c1`: the IC50 was determined as 4040 nM at Acetylcholinesterase and 25900 nM at Cholinesterase.
Take `O=C(CN1CCCCC1)Nc1ccc2ncn(CCc3c[nH]c4ccccc34)c(=O)c2c1`: the results for the IC50 against Acetylcholinesterase and at Cholinesterase were 1520 nM and 13000 nM, respectively.
`CCN(CC)CC(=O)Nc1ccc2nc3n(c(=O)c2c1)CCc1c-3[nH]c2ccccc12`: the IC50 was found to be 372 nM at Acetylcholinesterase and 17600 nM on Cholinesterase.
The matching figures for `O=C(CCN1CCCCC1)Nc1ccc2nc3n(c(=O)c2c1)CCc1c-3[nH]c2ccccc12`: 21.4 nM and 2110 nM.
For `CCN(CC)CC(=O)Nc1ccc2nc3c4[nH]c5ccccc5c4ccn3c(=O)c2c1`, in that order: 57.1 nM and 11400 nM.
The matching figures for `O=C(CN1CCCC1)Nc1ccc2nc3c4[nH]c5ccccc5c4ccn3c(=O)c2c1`: 23.6 nM and 428 nM.
In the case of `O=C(CN1CCCC1)Nc1ccc2nc3n(c(=O)c2c1)CCc1c-3[nH]c2ccccc12`, the values for the IC50 against Acetylcholinesterase and against Cholinesterase were 131 nM and 696 nM, respectively.
Take `O=C(CN1CCCCC1)Nc1ccc2nc3n(c(=O)c2c1)CCc1c-3[nH]c2ccccc12`: the IC50 against Acetylcholinesterase came out at 111 nM; at Cholinesterase, 33000 nM.
For `CCN(CC)CCC(=O)Nc1ccc2nc3n(c(=O)c2c1)CCc1c-3[nH]c2ccccc12`, in that order: 80.2 nM and 2850 nM.
The matching figures for `O=C(CN1CCCCC1)Nc1ccc2nc3c4[nH]c5ccccc5c4ccn3c(=O)c2c1`: 10.1 nM and 5430 nM.
Consider `CCN(CC)CC(=O)Nc1ccc2ncn(CCc3c[nH]c4ccccc34)c(=O)c2c1`, for which the figures for the IC50 against Acetylcholinesterase and on Cholinesterase were 7680 nM and 41600 nM, respectively.

The record behind these values is ChEMBL document CHEMBL1157030 (Eur J Med Chem, 2010).
